Reference: ChEMBL document CHEMBL1139852, “A distinctive structural twist in the aminoimidazole alkaloids from a calcareous marine sponge: isolation and characterization of leucosolenamines A and B” (J Nat Prod, 2007)

Key:
Assay type in all cases: cell-based; call rule not given here
[1] = Selective cytotoxicity for mouse C38 cells over CFU-GM cells at 7.8 ug/disk; details: mc-38
MC-38 [2] = experiment: Cytotoxicity against mouse C38 cells at 7.8 ug/disk
[3] = Cytotoxicity against mouse CFU-GM cells at 7.8 ug/disk
[4] = Selective cytotoxicity for mouse C38 cells over CFU-GM cells at 180 ug/disk; details: mc-38
MC-38 [5] = experiment: Cytotoxicity against mouse C38 cells at 180 ug/disk
[6] = Cytotoxicity against mouse CFU-GM cells at 180 ug/disk

Compound | inhibition zone (IZ) [1] | inhibition zone (IZ) (MC-38 [2]) | inhibition zone (IZ) [3] | inhibition zone (IZ) [4] | Activity (MC-38 [5]) | Activity [6] | inhibition zone (IZ) (MC-38 [5]) | inhibition zone (IZ) [6]
CO[C@@H](C(=O)N[C@H]1CCCCNC1=O)[C@H](O)[C@@H](O)[C@H](O)/C=C/C(C)C [BENGAMIDE E] | 4.5 mm | 21 mm | 16.5 mm | – | – | – | – | –
Cc1cn([C@H]2C[C@H](O)[C@@H](CO)O2)c(=O)[nH]c1=O [DOXRIBTIMINE] | – | – | – | 0 mm | Not Active | Not Active | – | –
Cn1c(/N=C2\NC(=N)N=C2Cc2ccc3c(c2)OCO3)c(N)c(=O)n(C)c1=O [LEUCOSOLENAMINE A] | – | – | – | 10.5 mm | – | – | 10.5 mm | 0 mm
